From patent US20120087980A1, “STIMULATION OF NEUROREGENERATION BY FLAVONOID GLYCOSIDES” (priority 2010, published 2012)

What was measured:
RhoA = RhoA G-LISA Activation Assay; format: cell-based; settings: RhoA Activator for 40 min after 48 hr isoquercitrin incubation (control)
Description: FIG. 6 illustrates RhoA activation. […] RhoA activity is depressed following administration of isoquercitrin for 48 hrs.
(§1) Cell culture. The NG108-15 neuroblastoma/glioma cells and ND7/23 rat DRG/mouse neuroblastoma cells were seeded at 10^4 cells/cm^2 on laminin coated wells and stimulated for 48 hours with 40 μM isoquercitrin (Cat No 00140585, Sigma) alone or in combination with either 10 μM Rho Kinase inhibitor Y-27632 (Cat No Y0503, Sigma) or 0.25 μg/ml Rho inhibitor Exoenzyme C3 Transferase (Cat No CT04, Cytoskeleton). Later, isoquercitrin stimulated cells were incubated with 0.2 unit/ml Rho Activator Calpeptin (Cat No CN01, Cytoskeleton) or, alternatively with 0.25 μM Phospholipase C inhibitor U73122 (Cat No 662035, Calbiochem). Live Cell Imaging. During incubation, cells were observed by time-lapse live cell imaging with Cell-IQ (Chip-Man Technologies, Ltd). Quantitative analysis of neurite length/cell was performed using Cell-IQ Analyser Software. Cell imaging by Immunofluorescence. […] The plate was incubated with an HRP detection reagent for 15 min at 37° C. and, after addition of an HRP stop buffer, the absorbance was immediately recorded at 490 nm. […] The purity and concentration were determined using a Nanoprop ND 1000 (Nanoprop Technologies, Delaware, USA) and a Bioanalyzer 2100 (Agilent, Waldbronn, Germany). […]

[1] = test system: PC3 human prostatic cancer cells, NIH 3T3 fibroblasts, and podocytes; settings: PC3, NIH 3T3 fibroblasts, references [6-8]; cited from earlier work
PC 12 cells = settings: via the ERK pathway, reference [1]; cited from earlier work
[2] = test system: NG108-15 neuroblastoma-glioma hybridoma cells and the ND7/23 neural cell line; test: Incubation of neural cell lines with 15 flavonoids, neurite formation; format: cell-based; settings: for neurite formation: screen of 15 flavonoids, NG108-15 and ND7/23 cells
Description: as §1, with “Immunofluorescence. Cells were cultured for 48 hrs on a Chamber Slide™ System (Lab-Tek™) under the above described conditions. Then, the cells were fixed and permeabilized with 4% formaldehyde/0.1% Triton X100 in PBS for 20 min at 4° C. After blocking with PBS containing 20% FBS and 5% BSA for 1 h at room temperature, they were incubated with mAb anti-synaptotagmin-1 (1:200, SY Synaptic Systems) for 1 hr at room temperature. Following three washes in PBS, cells were incubated with Alexa Fluor® 488 goat anti-mouse IgG/IgM (Invitrogen) for 30 min at room temperature. Afterwards, cells were incubated with 0.13 μg/ml phalloidin in the dark for 30 min at 4° C. Finally DAPI was added and last 30 min. Samples were rinsed three times and kept in PBS. The imaging was performed using Confocal Laser Scanning Microscope (Carl Zeiss AG). Assay for RhoA activation.” for “Immunofluorescence.”

NG108 cells = test: Microarray gene expression analysis (whole Mouse Genome 4x44k OligoMicroarrays); format: cell-based; settings: 40 uM isoquercitrin
Description: Cell culture. The NG108-15 neuroblastoma/glioma cells and ND7/23 rat DRG/mouse neuroblastoma cells were seeded at 10^4 cells/cm^2 on laminin coated wells and stimulated for 48 hours with 40 μM isoquercitrin (Cat No 00140585, Sigma) alone or in combination with either 10 μM Rho Kinase inhibitor Y-27632 (Cat No Y0503, Sigma) or 0.25 μg/ml Rho inhibitor Exoenzyme C3 Transferase (Cat No CT04, Cytoskeleton). Later, isoquercitrin stimulated cells were incubated with 0.2 unit/ml Rho Activator Calpeptin (Cat No CN01, Cytoskeleton) or, alternatively with 0.25 μM Phospholipase C inhibitor U73122 (Cat No 662035, Calbiochem). Live Cell Imaging. During incubation, cells were observed by time-lapse live cell imaging with Cell-IQ (Chip-Man Technologies, Ltd). Quantitative analysis of neurite length/cell was performed using Cell-IQ Analyser Software. Cell imaging by Immunofluorescence. Cells were cultured for 48 hrs on a Chamber Slide™ System (Lab-Tek™) under the above described conditions. Then, the cells were fixed and permeabilized with 4% formaldehyde/0.1% Triton X100 in PBS for 20 min at 4° C. After blocking with PBS containing 20% FBS and 5% BSA for 1 h at room temperature, they were incubated with mAb anti-synaptotagmin-1 (1:200, SY Synaptic Systems) for 1 hr at room temperature. Following three washes in PBS, cells were incubated with Alexa Fluor® 488 goat anti-mouse IgG/IgM (Invitrogen) for 30 min at room temperature. Afterwards, cells were incubated with 0.13 μg/ml phalloidin in the dark for 30 min at 4° C. Finally DAPI was added and last 30 min. Samples were rinsed three times and kept in PBS. The imaging was performed using Confocal Laser Scanning Microscope (Carl Zeiss AG). Assay for RhoA activation. For RhoA activation assay, the procedure followed the manufacture's instruction regarding RhoA G-LISA™ Activation Assay (Cytoskeleton). Briefly, grown cells were homogenized in a lysis buffer and were centrifuged at 14,000 rpm for 2 min. The supernatants, containing equal amount of proteins (60 μg/30 μl), were transferred into a 96 well plate and equal volumes of ice-cold binding buffer were added into each well. The plate was incubated for 30 min under shaking (400 rpm) at 4° C. Then they were incubated with diluted anti-RhoA primary antibodies followed by secondary antibodies while shaking (400 rpm) at room temperature for 45 min each. The plate was incubated with an HRP detection reagent for 15 min at 37° C. and, after addition of an HRP stop buffer, the absorbance was immediately recorded at 490 nm. Microarray and RT-PCR. Total cellular RNA was isolated using the RNAeasy spin columns with the DNAse digestion step. The purity and concentration were determined using a Nanoprop ND 1000 (Nanoprop Technologies, Delaware, USA) and a Bioanalyzer 2100 (Agilent, Waldbronn, Germany). All samples had 260/280 nm ratio above 1.8 and a 28S/18S ratio within 1.5-2. RNA (600 ng) was reverse transcribed into double-stranded complementary DNA (ds-cDNA) in the presence of RNA poly-A controls, RNA Spike-In Kit, Two-Color. The ds-cDNA was in vitro transcribed in the presence of Cy3 (control) and Cy5 (flavonoid-stimulated) labelled nucleotides using a Quick Amp labelling, two-color kit (Agilent P/N 5190-0444, Waldbronn, Germany). Transcription products (1.65 μg) were blocked, fragmented and hybridized to whole Mouse Genome 4×44k OligoMicroarrays (Agilent G4122F) for 17 h at 65° C. Arrays were then washed according to the manufacturer instructions and an Agilent Microarray Scanner used to measure the fluorescent intensity emitted by the labeled target. Total RNA was also reverse transcribed using oligo-dT primer and Superscript III enzyme (Invitrogen). […]

CCCC[C@@H](C=O)NC(=O)[C@H](CC(C)C)NC(=O)OCc1ccccc1 [RhoA Activator]
RhoA activation (G-LISA) after RhoA Activator (RhoA): increases RhoA activation

C[C@@H](N)[C@H]1CC[C@H](C(=O)Nc2ccncc2)CC1 [Y-27632]
cell morphology on ROCK inhibition [1]: elongated morphology

O=c1c(O)c(-c2ccc(O)c(O)c2)oc2cc(O)ccc12 [fisetin]
neurite outgrowth in PC 12 cells (PC 12 cells): induce neurite outgrowth
neurite formation [2]: significant neurites

O=c1c(O[C@@H]2O[C@H](CO)[C@@H](O)[C@H](O)[C@H]2O)c(-c2ccc(O)c(O)c2)oc2cc(O)cc(O)c12 [isoquercitrin, quercetin-3-β-D-glycoside]
Fold-change, GABA A receptor-associated protein-like 1 Gene (NG108 cells): 2.361
Fold-change, calcium and integrin binding 1 (calmyrin) Gene (NG108 cells): 1.297
Fold-change, cholinergic receptor, nicotinic, alpha polypeptide 10 Gene (NG108 cells): 1.438
Fold-change, cortactin binding protein 2 Gene (NG108 cells): 1.518
Fold-change, dopamine receptor 4 Gene (NG108 cells): 1.248
Fold-change, glutamate receptor, ionotropic, N-methyl D-aspartate-associated protein 1 Gene (NG108 cells): 1.595
Fold-change, neural proliferation, differentiation and control gene 1 Gene (NG108 cells): 1.385
Fold-change, neuroligin 2 Gene (NG108 cells): 1.266
Fold-change, neurotrophin 5 Gene (NG108 cells): 1.325
Fold-change, protein kinase C and casein kinase substrate in neurons 1 Gene (NG108 cells): 1.398
Fold-change, reticulon 3 Gene (NG108 cells): 1.316
Fold-change, synapsin I Gene (NG108 cells): 1.287
Fold-change, synapsin II Gene (NG108 cells): 1.518
Fold-change, synaptogyrin 1 Gene (NG108 cells): 2.130
Fold-change, synaptopodin 2-like Gene (NG108 cells): 1.393
Fold-change, synaptotagmin I Gene (NG108 cells): 1.934
Fold-change, synaptotagmin IV Gene (NG108 cells): 1.825
Fold-change, synaptotagmin XI Gene (NG108 cells): 1.913
persistence of neurite networks ([2]; in comparison to the other substances tested): up to 4 days of culture

O=c1c(O)c(-c2ccc(O)cc2)oc2cc(O)cc(O)c12 [kaempferol]
neurite formation [2]: significant neurites
